{"source": "patent US6720136B2", "about": "“Solid phase quenching systems” (V. I Technologies, Inc., priority 1998, dated 2004)", "experiment": "Quenching of ethyleneimine dimer in whole CPD human blood, EID concentration in plasma and RBC fractions by HPLC", "description": "50 μl of 120 mM ethyleneimine dimer (EID, PEN102) in 0.25 M NaH2PO4 was added to 0.9 ml of whole human CPD blood (final concentration of EID was 6 mM, 6 μmole total), and incubated at 23° C. for 4 hours. At the end of the 4-hour incubation period, 68 mg (50 μmole-equivalents of phosphothiomonoester groups) of ArgoPore-Thiophosphate support (prepared as described in Example 2) was added. In the parallel experiment, 50 μl of 1 M Na2S2O3 (final concentration 50 mM) was added to same amount of EID treated blood. Both samples were allowed to incubate for 2 hours at 23° C. The red blood cell (RBC) and plasma fraction of the blood were separated by centrifugation (10,000 rpm, 5 min), and the RBCs were opened by adding 9 volumes of water. The concentration of EID was determined in the RBC fraction and in the plasma fraction of the blood by HPLC (FIG. 6)."}
{"compound": "O=S(O)(O)=S", "note": "[sodium thiosulfate]", "values": [{"measurement": "concentration of ethyleneimine dimer in plasma fraction after quenching", "setting": "6 mM EID for 4 hours at 23° C., then quencher (50 μmole-equivalents support or 50 mM Na2S2O3) for 2 hours at 23° C., plasma", "value": 6.8, "unit": "µg/mL"}, {"measurement": "concentration of ethyleneimine dimer in red blood cell fraction after quenching", "setting": "6 mM EID for 4 hours at 23° C., then quencher (50 μmole-equivalents support or 50 mM Na2S2O3) for 2 hours at 23° C., red blood cells", "value": 2.2, "unit": "µg/mL"}, {"measurement": "quenching of ethyleneimine dimer in blood (in words)", "setting": "6 mM EID, quencher 2 hours at 23° C.", "value": "capable of quenching ethyleneimine dimer"}]}
